According to publication PMC8584229, “Comparative Antiseizure Analysis of Diverse Natural Coumarin Derivatives in Zebrafish” (International Journal of Molecular Sciences, 2021):
Like-named read-outs stand apart in the source and are kept apart here.

Key:
[1] = test system: PTZ-induced seizure-like behavior (locomotor activity) of zebrafish larvae; assay: Larval zebrafish PTZ seizure model, locomotor analysis (behavioral antiseizure activity); assay type: in vivo, zebrafish (Danio rerio); settings: for antiseizure activity in the locomotor assay (in words) / lowered seizure-like behavior / decrease of PTZ-induced locomotor activity / decrease of seizure-like behavior / lowered PTZ-induced locomotion: 20 mM PTZ; for antiseizure activity in the locomotor assay (in words): up to MTC; for lowered seizure-like behavior: abstract summary, highest effect, 18 h pre-incubation; for decrease of PTZ-induced locomotor activity: range over all test concentrations (MTC and 2-, 4-, 8-fold dilutions)
Method: The effect of different concentrations of test compounds was explored on the locomotor behavior of larvae exposed to the GABA-antagonist PTZ. All compounds were tested at four concentrations—the maximum tolerated concentration (MTC) and two-fold, four-fold, and eight-fold dilutions of the MTC. […] In all experiments, as expected, the positive control VPA (1 mM) decreased seizure-like behavior (i.e., PTZ-induced elevated locomotor activity) with an average (±SD) of 44 ± 34%. […] The antiseizure effect depended on either the type of coumarin or the concentration.
Adult zebrafish (Danio rerio) stocks of the AB strain were maintained at 28.5 °C, on a 14/10 h light/dark cycle under standard aquaculture conditions, and fertilized eggs were collected via natural spawning. Embryos were reared under standard light/dark conditions in embryo medium (1.5 mM HEPES, pH 7.1–7.3, 17.4 mM NaCl, 0.21 mM KCl, 0.12 mM MgSO4, 0.18 mM Ca(NO3)2, and 0.6 μM methylene blue) in an incubator at 28.5 °C. For all measurements, 7-days post-fertilization (dpf) larvae were used, which were treated at 6 dpf. The zebrafish experiments described here were approved by the Local Ethics Committee in Lublin (license no: 109/2018), the Ethics Committee of the University of Leuven (approval number 023/2017), and the Belgian Federal Department of Public Health, Food Safety & Environment (approval number LA1210199). All experiments complied with the EU Directive 2010/63/EU for animal experiments.
All compounds were dissolved in dimethyl sulfoxide (DMSO) and diluted in embryo medium to achieve a final DMSO concentration of 1% v/v. Embryo medium prepared with DMSO to a final concentration of 1% v/v served as a vehicle (VHC) control. PTZ (40 mM) was dissolved in embryo medium. The control anticonvulsant used in this study was VPA.
Six-dpf larvae were treated with VHC (embryo medium (1% DMSO)), VPA (1 mM), or tested compound, in 100 µL volume for 18 h, in individual wells of a 96-well plate at 28.5 °C in the dark. Larvae were allowed to habituate for 5 min in a dark chamber of an automated tracking device (ZebraBox system, Viewpoint, Lyon, France). Then, 100 µL of embryo medium or 100 µL of a 40 mM PTZ solution was added to obtain a final concentration of 20 mM [33] and the locomotor activity was measured to evaluate seizure intensity. The total locomotor activity was quantified using ZebraLab software (Viewpoint, Lyon, France). Total locomotor activity was expressed as total distance moved. All tracking experiments were performed at least in triplicate.
(§1) All statistical analyses were performed using GraphPad Prism 5 or 7 software (GraphPad Software, Inc., San Diego, CA, USA). The locomotor activity of zebrafish larvae and electrophysiological antiseizure analysis was evaluated using one-way ANOVA followed by Dunnett’s multiple comparisons test. Values were presented as lardist sum ± standard error of the mean (SEM) or normalized PSD (%) ± standard error of the mean (SEM). Lardist is large movement distance (>6 mm/s), measured in millimeters. Significance levels: * p ≤ 0.05, ** p ≤ 0.01, and *** p ≤ 0.001.

[2] = test system: maximal electroshock-induced seizures; settings: cited from earlier work; for ED50 of classic anticonvulsant alone: without umbelliferone
[3] = test system: seizure-related locomotor activity of zebrafish; set-up: method as in PMID 30668376; settings: cited from earlier work
[4] = test system: PTZ-induced epileptiform activity in the zebrafish larval optic tectum; assay: Local field potential recordings from the optic tectum, power spectral density analysis; assay type: in vivo, zebrafish (Danio rerio); settings: MTC, 18 h incubation; 20 mM PTZ; 20–90 Hz band
Method: To further investigate the results of the behavioral study for all eight selected compounds, local field potential (LFP) measurements were employed. Zebrafish larvae were incubated with the compounds at their MTC for 18 h in darkness and the epileptiform activity was measured in the zebrafish larval optic tectum. A significant reduction in larvae with PTZ-induced epileptiform activity was observed, in comparison to PTZ-treated controls, for all compounds except nodakenetin (Figure 3).
For the rapid, objective, and automated analysis of the LFP recordings, power spectral density (PSD) analysis was performed. This methodology was previously developed and used for zebrafish electrophysiology. It relies on the Welch’s method of averaging the modified periodograms with a 512-point fast Fourier transformation with 80% overlapping 100 sample (100 ms) long segments and a Hamming window. PSDs were estimated for each LFP recording over each 10 Hz frequency band, ranging from 0 to 160 Hz. All examined furanocoumarins at the MTC concentration ameliorated the excitatory effect of preincubation with PTZ. Oxypeucedanin (1), oxypeucedanin hydrate (2), and notopterol (3) decreased normalized PSD per larva to a similar level with 83–89%. […] Pimpinellin (14, an angular furanocoumarin), daphnoretin (17, a simple coumarin derivative), and hyuganin C (18, a dihydropyranocoumarin) decreased normalized PSD by 81, 88, and 65%, respectively.
Non-invasive local field potential recordings were performed from the optic tectum of 7-dpf zebrafish larvae. Larvae were treated with VHC (embryo medium (1% DMSO)) or compound (MTC) in 100 µL volume (in individual wells of a 96-well plate) in darkness (28 °C) for 18 h before measurement. Prior to the recording, 100 µL of VHC (embryo medium) or 40 mM PTZ (to obtain a final concentration of 20 mM) was added to the well for 15 min. After incubation, the larva was immobilized in 2% low-melting-point agarose (Invitrogen, Carlsbad, CA, USA) and the signal electrode, an electrode inside a blunt soda-glass pipet (1412227, Hilgenberg, Germany), was positioned on the skin covering the optic tectum. Electrophysiological recordings where performed as described before. Automated power spectral density analysis was performed using MATLABR2018b (The MathWorks, Inc., Natick, MA, USA), as described before.
as §1

GABAA receptor = test system: GABAA receptor; set-up: method as in PMID 21749864; settings: cited from earlier work; for EC50: read-out: EC50 (potentiation of IGABA)

CC(C)=CCCC(C)=CCOc1c2occc2cc2ccc(=O)oc12 [8-geranyloxypsoralen]
antiseizure activity in the locomotor assay (in words) [1]: lack of antiseizure activity

CCC1(c2ccccc2)C(=O)NC(=O)NC1=O [PB, phenobarbital, reference compound]
ED50 of classic anticonvulsant alone ([2]; mice): 35.39 mg/kg

C1CCc2nnnn2CC1 [PTZ, pentylenetetrazole, reference compound]
increase in seizure-like behavior and locomotor activity (lardist sum), average ± SD ([1]; proconvulsant, 20 mM, all experiments): 59 ± 35%

CCCC(CCC)C(=O)O [VPA, valproic acid, reference compound]
decrease of seizure-like behavior (PTZ-induced elevated locomotor activity), average ± SD ([1]; positive control, 1 mM, all experiments): 44 ± 34%
ED50 of classic anticonvulsant alone ([2]; mice): 281.4 mg/kg

CC(C)=CCC/C(C)=C/COc1c2ccoc2cc2oc(=O)ccc12 [bergamottin]
inhibition (antiseizure, locomotor activity) ([3]; most active concentration, 2 µM): 26%

COc1c2ccoc2cc2oc(=O)ccc12 [bergapten]
protective properties in MES test (in words) ([2]; mice): did not show protective properties

COc1c2ccoc2c(OC[C@@H](O)C(C)(C)O)c2oc(=O)ccc12 [byakangelicin]
antiseizure activity in the locomotor assay (in words) [1]: lack of antiseizure activity

COc1c2ccoc2c(OC[C@H]2OC2(C)C)c2oc(=O)ccc12 [byakangelicol]
antiseizure activity in the locomotor assay (in words) [1]: lack of antiseizure activity

COc1cc2cc(Oc3ccc4ccc(=O)oc4c3)c(=O)oc2cc1O [daphnoretin]
decrease of normalized PSD (PTZ-induced elevation in power spectral density) [4]: 88%
lowered seizure-like behavior [1]: 65%
decrease of PTZ-induced locomotor activity [1]: 42–65%

CC1(C)O[C@@H]1COc1c2occc2cc2ccc(=O)oc12 [heraclenin, reference compound]
enhancement of IGABA (GABAA receptor): greater than 20%

CC[C@H](C)C(=O)OC1c2c(ccc3ccc(=O)oc23)OC(C)(C)C1OC(C)=O (stereo partly shown) [hyuganin C]
decrease of normalized PSD (PTZ-induced elevation in power spectral density) [4]: 65%
decrease of seizure-like behavior ([1]; 10 µM): 27%
decrease of seizure-like behavior ([1]; 20 µM): 35%
lowered seizure-like behavior [1]: 35%

CC(C)=CCOc1c2occc2cc2ccc(=O)oc12 [imperatorin]
antiseizure activity in the locomotor assay (in words) [1]: lack of antiseizure activity
enhancement of IGABA (GABAA receptor): greater than 20%
raised threshold for electroconvulsions ([2]; 50 mg/kg i.p., mice): 38%
raised threshold for electroconvulsions ([2]; 100 mg/kg i.p., mice): 68%

CC(C)=CCOc1c2ccoc2cc2oc(=O)ccc12 [isoimperatorin]
enhancement of IGABA (GABAA receptor): greater than 20%

CC(C)(O)[C@H]1Cc2cc3ccc(=O)oc3cc2O1 [nodakenetin]
decrease of normalized PSD (PTZ-induced elevation in power spectral density) [4]: 26%
lowered seizure-like behavior [1]: 29%

CC(C)(O[C@@H]1O[C@H](CO)[C@@H](O)[C@H](O)[C@H]1O)[C@H]1Cc2cc3ccc(=O)oc3cc2O1 [nodakenin]
decrease of normalized PSD (PTZ-induced elevation in power spectral density) [4]: 77%
antiseizure activity in the locomotor assay (in words) [1]: inactive

CC(C)=CC(O)C/C(C)=C/COc1c2ccoc2cc2oc(=O)ccc12 (stereo not shown) [notopterol]
decrease of normalized PSD (PTZ-induced elevation in power spectral density) [4]: 83–89%
lowered PTZ-induced locomotion ([1]; 2 µM): 54%
lowered PTZ-induced locomotion ([1]; 0.25–1 µM): 35–39%
lowered seizure-like behavior [1]: 54%

COc1ccc2ccc(=O)oc2c1CC=C(C)C [osthole]
antiseizure activity in the locomotor assay (in words) [1]: not active
current in the absence of GABA (in words) (GABAA receptor): neither of them induced a current in the absence of GABA
enhancement of IGABA (GABAA receptor): greater than 20%
EC50 (GABAA receptor): 14 ± 1 µM
protection of the animals against MES ([2]; 266 and 259 mg/kg i.p., between 15 and 30 min before the test): ~90%
effect on the anticonvulsant activity of CBZ, PB, PHT and VPA on co-administration (in words) ([2]; mice): did not have a significant effect

CC(C)(O)[C@H](O)COc1c2ccoc2cc2oc(=O)ccc12 [oxypeucedanin hydrate]
decrease of normalized PSD (PTZ-induced elevation in power spectral density) [4]: 83–89%
lowered seizure-like behavior [1]: 74%
decrease of PTZ-induced locomotor activity [1]: 43–74%

CC1(C)O[C@H]1COc1c2ccoc2cc2oc(=O)ccc12 [oxypeucedanin]
decrease of normalized PSD (PTZ-induced elevation in power spectral density) [4]: 83–89%
lowered seizure-like behavior [1]: 38%
decrease of PTZ-induced locomotor activity [1]: 23–38%
current in the absence of GABA (in words) (GABAA receptor): neither of them induced a current in the absence of GABA
enhancement of IGABA (GABAA receptor): greater than 20%
EC50 (GABAA receptor): 25 ± 8 µM
protective properties in MES test (in words) ([2]; mice): did not show protective properties

COc1c2ccoc2c(OCC=C(C)C)c2oc(=O)ccc12 [phellopterin]
antiseizure activity in the locomotor assay (in words) [1]: lack of antiseizure activity
enhancement of IGABA (GABAA receptor): greater than 20%

COc1c(OC)c2occc2c2oc(=O)ccc12 [pimpinellin]
decrease of normalized PSD (PTZ-induced elevation in power spectral density) [4]: 81%
lowered seizure-like behavior [1]: 60%
enhancement of IGABA (GABAA receptor): greater than 20%

O=c1ccc2ccc(O)cc2o1 [umbelliferone, 7-hydroxycoumarin]
antiseizure activity in the locomotor assay (in words) [1]: not active
increase of the electroshock threshold ([2]; 150 mg/kg i.p., 30 min before electroshock): around 37%

COc1c2occc2cc2ccc(=O)oc12 [xanthotoxin, reference compound]
ED50 (anticonvulsant activity) ([2]; administered 60 min before electroconvulsion, mice): 219.1 ± 4.7 mg/kg

lucidafuranocoumarin A
inhibition (antiseizure, locomotor activity) ([3]; 16 µM): 69%
